Reference: patent EP4752152A1, “STEROID COMPOUND, AND PREPARATION METHOD THEREFOR AND USE THEREOF” (Cholesgen (Shanghai) Co.Ltd., priority 2023, dated 2025)

Assays:
[1] = test system: Fatty Acid Synthase (FASN) gene; assay: Inhibition of FASN gene expression (qPCR) in Huh-7 cells; assay type: cell-based, human; conditions: Homo sapiens, Huh-7, 16 h, Huh-7 cells, starvation medium, 16 hours, qPCR; class symbols; read-out: FASN IC50
How it was run: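 IC50 derived by four-parameter fit of FASN expression inhibition versus DMSO, measured by RT-qPCR. Compound exposure lasted 16 h at five 3-fold concentrations from 3000 nM, applied to Huh-7 cells in sterol-depleting medium with 5% LPDS, 2 µM lovastatin and 10 µM mevalonate.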

[2] = test system: SREBP pathway; assay: SREBP luciferase reporter gene system (SRE-luciferase assay); assay type: cell-based, human; conditions: Homo sapiens, Huh-7, 16 h, Huh-7/SRE-luc cells, sterol-deficient medium, 0.01-10 µM
How it was run: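 Readout was SRE-driven luciferase normalised to GFP fluorescence in lysates of stably transfected Huh-7/SRE-luc hepatoma cells. Compounds (0.01, 0.03, 0.1, 0.3, 1.0, 3.0, 10 µM; DMSO control) were applied for 16 h in sterol-depleted medium with 2 µM lovastatin and 10 µM mevalonate; IC50 from variable-slope fit.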

| SMILES | IC50 [1] [µM] | IC50 [2] [µM] |
| --- | --- | --- |
| C[C@H](CCCC(O)c1c(F)cccc1F)[C@H]1CC[C@H]2C3=C(F)CC4C[C@@H](O)CC[C@]4(C)[C@H]3CC[C@]12C (stereo in doubt) [Compound 82, (1R,3aR,7S,9aS,9bR,11aR)-1-[(2R)-6-(2,6-difluorophenyl)-6-hydroxyhexan-2-yl]-4-fluoro-9a,11a-dimethyl-2,3,3a,5,5a,6,7,8,9,9a,9b,10,11,11a-tetradecahydro-1H-cyclopenta[1,2-a]phenanthren-7-ol] | 0.2 to 0.5 | 0.357 |
| COc1cc(F)cc(F)c1C(O)CCC[C@@H](C)[C@H]1CC[C@H]2C3CC[C@H]4[C@@H](O)[C@@H](O)CC[C@]4(C)[C@H]3CC[C@]12C (stereo in doubt) [Compound 104, (1R,3aS,5aR,6R,7S,9aR,9bS,11aR)-1-[(2R)-6-(2,4-Difluoro-6-methoxyphenyl)-6-hydroxyhexan-2-yl]-9a,11a-dimethylhexadecahydro-1H-cyclopenta[1,2-a]phenanthrene-6,7-diol] | 0.2 to 0.5 | 0.25 |
| C[C@H](CCC[C@@H](O)c1nc2cnccc2n1C)[C@H]1CC[C@H]2[C@H]3[C@H](CC[C@]12C)[C@@]1(C)CC[C@H](O)[C@H](O)[C@@H]1CC3(F)F (stereo in doubt) [Compound 326, (1R,3aS,3bS,5aR,6R,7S,9aR,9bS,11aR)-4,4-difluoro-1-[(2R,6R)-6-hydroxy-6-(1-methylimidazo[5,4-c]pyridin-2-yl)hexan-2-yl]-9a,11a-dimethylhexadecahydro-1H-cyclopenta[1,2-a]phenanthrene-6,7-diol] | < 0.2 | 0.011 |
| C[C@H](CCCC(O)c1cccnc1)[C@H]1CC[C@H]2[C@H]3[C@H](CC[C@]12C)[C@@]1(C)CC[C@H](O)[C@H](O)[C@@H]1CC3(F)F (stereo partly drawn) [Compound 54, (1R,3aS,3bS,5aR,6R,7S,9aR,9bS,11aR)-4,4-difluoro-1-[(2R)-6-hydroxy-6-(pyridin-3-yl)hexan-2-yl]-9a,11a-dimethylhexadecahydro-1H-cyclopenta[1,2-a]phenanthrene-6,7-diol] | 0.2 to 0.5 | 0.35 |
| COc1ccc(C(O)CCC[C@@H](C)[C@H]2CC[C@H]3[C@H]4[C@H](CC[C@]23C)[C@@]2(C)CC[C@H](O)[C@H](O)[C@@H]2CC4(F)F)c(F)c1 (stereo partly drawn) [Compound 67, (1R,3aS,3bS,5aR,6R,7S,9aR,9bS,11aR)-4,4-difluoro-1-[(2R)-6-(2-fluoro-4-methoxyphenyl)-6-hydroxyhexan-2-yl]-9a,11a-dimethylhexadecahydro-1H-cyclopenta[1,2-a]phenanthrene-6,7-diol] | 0.2 to 0.5 | 0.203 |
| COc1ccc(C(O)CCC[C@@H](C)[C@H]2CC[C@H]3C4=C(F)C[C@H]5[C@@H](O)[C@@H](O)CC[C@]5(C)[C@H]4CC[C@]23C)c(F)c1 (stereo partly drawn) [Compound 68, (1R,3aR,5aR,6R,7S,9aR,9bR,11aR)-4-fluoro-1-[(2R)-6-(2-fluoro-4-methoxyphenyl)-6-hydroxyhexan-2-yl]-9a,11a-dimethyl-2,3,3a,5,5a,6,7,8,9,9a,9b,10,11,11a-tetradecahydro-1H-cyclopenta[1,2-a]phenanthrene-6,7-diol] | 0.2 to 0.5 | 0.434 |
| C[C@H](CCCC(O)c1c(F)cc(F)cc1F)[C@H]1CC[C@H]2[C@H]3[C@H](CC[C@]12C)[C@@]1(C)CC[C@H](O)[C@H](O)[C@@H]1CC3(F)F (stereo partly drawn) [Compound 69, (1R,3aS,3bS,5aR,6R,7S,9aR,9bS,11aR)-4,4-difluoro-1-[(2R)-6-hydroxy-6-(2,4,6-trifluorophenyl)hexan-2-yl]-9a,11a-dimethylhexadecahydro-1H-cyclopenta[1,2-a]phenanthrene-6,7-diol] | < 0.2 | 0.086 |
| C[C@H](CCCC(O)c1ccccc1F)[C@H]1CC[C@H]2C3=C(F)CC4C[C@@H](O)CC[C@]4(C)[C@H]3CC[C@]12C (stereo partly drawn) [Compound 75, (1R,3aR,7S,9aS,9bR,11aR)-4-fluoro-1-[(2R)-6-(2-fluorophenyl)-6-hydroxyhexan-2-yl]-9a,11a-dimethyl-2,3,3a,5,5a,6,7,8,9,9a,9b,10,11,11a-tetradecahydro-1H-cyclopenta[1,2-a]phenanthren-7-ol] | < 0.2 | 0.37 |
| COc1ncccc1C(O)CCC[C@@H](C)[C@H]1CC[C@H]2C3=C(F)C[C@H]4[C@@H](O)[C@@H](O)CC[C@]4(C)[C@H]3CC[C@]12C (some centres unmarked) [Compound 83] | 0.2 to 0.5 | 0.092 |
| C[C@H](CCCC(O)c1nccs1)[C@H]1CC[C@H]2[C@H]3[C@H](CC[C@]12C)[C@@]1(C)CC[C@H](O)[C@H](O)[C@@H]1CC3(F)F (stereo partly drawn) [Compound 89, (1R,3aS,3bS,5aR,6R,7S,9aR,9bS,11aR)-4,4-difluoro-1-[(2R)-6-hydroxy-6-(1,3-thiazol-2-yl)hexan-2-yl]-9a,11a-dimethylhexadecahydro-1H-cyclopenta[1,2-a]phenanthrene-6,7-diol] | < 0.2 | 0.183 |
| C[C@H](CCC[C@@H](O)c1ccccn1)[C@H]1CC[C@H]2[C@H]3[C@H](CC[C@]12C)[C@@]1(C)CC[C@H](O)[C@H](O)[C@@H]1CC3(F)F [Compound 92, (1R,3aS,3bS,5aR,6R,7S,9aR,9bS,11aR)-4,4-difluoro-1-[(2R,6R)-6-hydroxy-6-(pyridin-2-yl)hexan-2-yl]-9a,11a-dimethylhexadecahydro-1H-cyclopenta[1,2-a]phenanthrene-6,7-diol] | < 0.2 | 0.371 |
| C[C@H](CCC(=O)N(C)c1ccccc1F)[C@H]1CC[C@H]2[C@H]3[C@H](CC[C@]12C)[C@@]1(C)CC[C@H](O)[C@H](O)[C@@H]1CC3(F)F [Compound 95, (4R)-4-[(1R,3aS,3bS,5aR,6R,7S,9aR,9bS,11aR)-4,4-difluoro-6,7-dihydroxy-9a,11a-dimethylhexadecahydro-1H-cyclopenta[1,2-a]phenanthren-1-yl]-N-(2-fluorophenyl)-N-methylpentanamide] | < 0.2 | 0.08 |
| C[C@H](CCCC(O)c1ccc(F)cc1)[C@H]1CC[C@H]2[C@H]3[C@H](CC[C@]12C)[C@@]1(C)CC[C@H](O)[C@H](O)[C@@H]1CC3(F)F (stereo partly drawn) [Compound 100, (1R,3aS,3bS,5aR,6R,7S,9aR,9bS,11aR)-4,4-difluoro-1-[(2R)-6-(4-fluorophenyl)-6-hydroxyhexan-2-yl]-9a,11a-dimethylhexadecahydro-1H-cyclopenta[1,2-a]phenanthrene-6,7-diol] | 0.2 to 0.5 | 0.179 |
| C[C@H](CCCC(O)c1ccc(F)cc1)[C@H]1CC[C@H]2C3=C(F)C[C@H]4[C@@H](O)[C@@H](O)CC[C@]4(C)[C@H]3CC[C@]12C (stereo partly drawn) [Compound 101, (1R,3aR,5aR,6R,7S,9aR,9bR,11aR)-4-fluoro-1-[(2R)-6-(4-fluorophenyl)-6-hydroxyhexan-2-yl]-9a,11a-dimethyl-2,3,3a,5,5a,6,7,8,9,9a,9b,10,11,11a-tetradecahydro-1H-cyclopenta[1,2-a]phenanthrene-6,7-diol] | 0.2 to 0.5 | 0.298 |
| C[C@H](CCCC(O)c1ccc(F)cc1F)[C@H]1CC[C@H]2[C@H]3[C@H](CC[C@]12C)[C@@]1(C)CC[C@H](O)[C@H](O)[C@@H]1CC3(F)F (stereo partly drawn) [Compound 102, (1R,3aS,3bS,5aR,6R,7S,9aR,9bS,11aR)-1-[(2R)-6-(2,4-difluorophenyl)-6-hydroxyhexan-2-yl]-4,4-difluoro-9a,11a-dimethylhexadecahydro-1H-cyclopenta[1,2-a]phenanthrene-6,7-diol] | < 0.2 | 0.14 |
| COc1cccc(F)c1C(O)CCC[C@@H](C)[C@H]1CC[C@H]2C3=C(F)C[C@H]4[C@@H](O)[C@@H](O)CC[C@]4(C)[C@H]3CC[C@]12C (stereo partly drawn) [Compound 105, (1R,3aR,5aR,6R,7S,9aR,9bR,11aR)-4-fluoro-1-[(2R)-6-(2-fluoro-6-methoxyphenyl)-6-hydroxyhexan-2-yl]-9a,11a-dimethyl-2,3,3a,5,5a,6,7,8,9,9a,9b,10,11,11a-tetradecahydro-1H-cyclopenta[1,2-a]phenanthrene-6,7-diol] | 0.2 to 0.5 | 0.109 |
| COc1nc(F)ccc1C(O)CCC[C@@H](C)[C@H]1CC[C@H]2C3=C(F)C[C@H]4[C@@H](O)[C@@H](O)CC[C@]4(C)[C@H]3CC[C@]12C (stereo partly drawn) [Compound 107, (1R,3aR,5aR,6R,7S,9aR,9bR,11aR)-4-fluoro-1-[(2R)-6-(6-fluoro-2-methoxypyridin-3-yl)-6-hydroxyhexan-2-yl]-9a,11a-dimethyl-2,3,3a,5,5a,6,7,8,9,9a,9b,10,11,11a-tetradecahydro-1H-cyclopenta[1,2-a]phenanthrene-6,7-diol] | 0.2 to 0.5 | 0.0777 |
| COc1cc(Cl)ccc1[C@H](O)CCC[C@@H](C)[C@H]1CC[C@H]2[C@H]3[C@H](CC[C@]12C)[C@@]1(C)CC[C@H](O)[C@H](O)[C@@H]1CC3(F)F [Compound 113, (1R,3aS,3bS,5aR,6R,7S,9aR,9bS,11aR)-1-[(2R,6R)-6-(4-chloro-2-methoxyphenyl)-6-hydroxyhexan-2-yl]-4,4-difluoro-9a,11a-dimethylhexadecahydro-1H-cyclopenta[1,2-a]phenanthrene-6,7-diol] | 0.2 to 0.5 | 0.228 |
| COc1ccc(C(O)CCC[C@@H](C)[C@H]2CC[C@H]3[C@H]4[C@H](CC[C@]23C)[C@@]2(C)CC[C@H](O)[C@H](O)[C@@H]2CC4(F)F)c(OC)n1 (stereo partly drawn) [Compound 177, (1R,3aS,3bS,5aR,6R,7 S,9aR,9bS,11aR)-1-[(2R)-6-(2,6-Dimethoxypyridin-3-yl)-6-hydroxyhexan-2-yl]-4,4-difluoro-9a,11a-dimethylhexadecahydro-1H-cyclopenta[1,2-a]phenanthrene-6,7-diol] | < 0.2 | 0.186 |
